Laboratory results from publication PMC7897442, “Mobility shift-based electrophoresis coupled with fluorescent detection enables real-time enzyme analysis of carbohydrate sulfatase activity” (Biochemical Journal, 2021).

Assays:
[1] = Stability of labelled substrate in CE assay without enzyme; assay type: physicochemical; settings: absence of enzyme, CE assay conditions
From the text: 6S-N-acetyl-D-glucosamine was labelled at its reducing end with BODIPY which has a maximal emission absorbance of ∼503 nm, which can be detected by the EZ Reader II platform via LED-induced fluorescence. Non-radioactive microfluidic mobility shift carbohydrate sulfation assays were optimised in solution with a 12-sipper chip coated with CR8 reagent and performed using a PerkinElmer EZ Reader II system employing EDTA-based separation buffer and real-time kinetic evaluation of substrate desulfation. Pressure and voltage settings were adjusted manually (1.8 psi, upstream voltage: 2250 V, downstream voltage: 500 V) to afford optimal separation in the reaction mixture of the sulfated substrate and unsulfated glycan product, with a sample (sip) time of 0.2 s, and total assay times appropriate for the experiment. Individual de-sulfation assays were carried out at 28°C and were pre-assembled in a 384-well plate in a volume of 80 μl in the presence of substrate concentrations between 0.5 and 20 μM with 100 mM Bis-Tris-Propane (BTP) or Tris, dependent on the pH required, and 150 mM NaCl, 0.02% (v/v) Brij-35 and 5 mM CaCl2. The amount of de-sulfation was directly calculated in real-time using EZ Reader II software by measuring the sulfated carbohydrate : unsulfated carbohydrate ratio at each time point during the assay. […]

[2] = parameters: method as in PMID 36876452; settings: pH range; cited from earlier work

Row | amount of unsulfated substrate over the course of the reaction (stability) [1] | SMILES | stability over a variety of pH values [2]
1 | remained constant | CC(=O)N[C@@H]1[C@@H](O)[C@H](O)[C@@H](COS(=O)(=O)O)O[C@H]1NNC(=O)CCC1=[N+]2C(=Cc3c(C)cc(C)n3[B-]2(F)F)C=C1 [6S-GlcNAc-BODIPY] | –
2 | – | Cc1cc(C)n2c1C=C1C=CC(CCC(=O)NN)=[N+]1[B-]2(F)F [BODIPY-FL hydrazide, 4,4-difluoro-5,7-dimethyl-4-bora-3a,4a-diaza-s-indacene-3-propionic acid, hydrazide] | 3–12
